The record followed here is BindingDB's records for doi:10.1080/14756360600889708 (University of Karachi, 2006).

One assay deals with Acetylcholinesterase (Tetronarce californica, UniProt P04058). Kind of assay: Enzyme Inhibition Assay. Particulars: 30 °C. How it is done: (§1) AChE and BChE inhibitory activities were measured in vitro by a modified spectrophotometric method. all the inhibition studies were performed using a Spectra Max microplate spectrophotometer from Molecular Devices, CA, USA.
In assay [1] the target is Carboxylic ester hydrolase (Equus caballus, UniProt Q9N1N9). In words: Enzyme Inhibition Assay. Particulars: 30 °C. Here is the method: as §1

The structures appear in SMILES notation.

Chain of Carboxylic ester hydrolase (Q9N1N9 whole entry): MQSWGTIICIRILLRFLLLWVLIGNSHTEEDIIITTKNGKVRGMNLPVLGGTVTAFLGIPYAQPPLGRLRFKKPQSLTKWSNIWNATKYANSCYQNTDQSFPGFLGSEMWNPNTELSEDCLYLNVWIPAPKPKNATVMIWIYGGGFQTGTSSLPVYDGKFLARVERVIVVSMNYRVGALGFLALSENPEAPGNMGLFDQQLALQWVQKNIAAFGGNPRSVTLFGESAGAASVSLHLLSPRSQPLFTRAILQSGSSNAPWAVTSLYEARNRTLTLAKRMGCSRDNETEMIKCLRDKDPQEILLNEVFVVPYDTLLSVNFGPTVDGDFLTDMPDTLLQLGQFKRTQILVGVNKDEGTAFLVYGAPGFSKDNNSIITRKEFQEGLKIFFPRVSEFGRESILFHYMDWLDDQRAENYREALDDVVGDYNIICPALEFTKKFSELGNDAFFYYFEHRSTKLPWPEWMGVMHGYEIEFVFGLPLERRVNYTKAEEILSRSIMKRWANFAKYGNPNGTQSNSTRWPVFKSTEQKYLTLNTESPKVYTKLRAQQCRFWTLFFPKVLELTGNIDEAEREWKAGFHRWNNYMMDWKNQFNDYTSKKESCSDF
Chain of Acetylcholinesterase (P04058 whole entry): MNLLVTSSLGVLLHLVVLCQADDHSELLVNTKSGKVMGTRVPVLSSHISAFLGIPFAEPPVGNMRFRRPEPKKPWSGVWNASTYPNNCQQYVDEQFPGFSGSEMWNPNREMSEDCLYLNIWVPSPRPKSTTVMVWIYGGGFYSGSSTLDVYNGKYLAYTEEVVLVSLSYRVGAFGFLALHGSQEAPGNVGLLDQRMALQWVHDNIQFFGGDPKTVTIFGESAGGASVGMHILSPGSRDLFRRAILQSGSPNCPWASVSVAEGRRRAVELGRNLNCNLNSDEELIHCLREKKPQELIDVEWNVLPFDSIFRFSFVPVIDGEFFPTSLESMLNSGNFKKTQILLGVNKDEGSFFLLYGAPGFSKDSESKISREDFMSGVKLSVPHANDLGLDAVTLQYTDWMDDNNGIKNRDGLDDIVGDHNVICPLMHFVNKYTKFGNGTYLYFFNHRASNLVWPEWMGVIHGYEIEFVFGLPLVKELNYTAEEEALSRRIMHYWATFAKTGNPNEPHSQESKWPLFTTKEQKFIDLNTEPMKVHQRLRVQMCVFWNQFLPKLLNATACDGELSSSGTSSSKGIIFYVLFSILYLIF

As usually defined, the Ki is a dissociation constant, usually derived from enzyme kinetics or from competition with a known ligand. For the compound `COC(C)(C)[C@H]1Cc2c(n(C)c3ccccc3c2=O)O1` [Methyl isoplatydesmine, 4], the Ki at Acetylcholinesterase was determined as 30 µM; in assay [1] it was 19 µM. Regarding `Cn1c2c(c(=O)c3ccccc31)C[C@@H](O)C(C)(C)O2` [Ribalinine, 3], the figures for the Ki (at Acetylcholinesterase; in assay [1]) were 30 µM and 70 µM, respectively. For the compound `COc1ccc2c3c1O[C@H]1C[C@@H](O)C=C[C@@]31CCN(C)C2` [galantamine], the affinity in assay [1], expressed as Ki, was 32 µM.
